≈ marks a conversion by molar mass, not a printed value. Where “and” joins values, the source holds several entries; their conditions need not be identical. Equal entries are not always repeated.
Assays:
Mtb H37Rv = assay: BTZ-043 dose escalation study in Mtb-infected BALB/c mice (pulmonary CFU); type: in vivo, Mycobacterium tuberculosis
in vivo = details: IL-13tg, mouse, oral, 250 mg/kg
in vitro = details: human
[1] = LCM coupled LC-MS/MS of necrotic granulomas and non-necrotic regions; type: in vivo, IL-13tg mice; details: for concentration at 4 h: IL-13tg, mouse, oral
Method: Necrotic granulomas and non-necrotic regions were dissected from 2 to 3 γ−irradiated serial lung cryosections (thickness: 12 µm) using a PALM Microbeam (Zeiss, Oberkochen, Germany). Laser-dissected tissues were captured in an ascorbic acid solution (2.5 mg/mL) to prevent the degradation of BTZ-043 and stored at -80 °C. Samples were thawed on ice before drying in the SpeedVac. For reconstitution 80 µL of an 80% ACN/ 20% FA, containing 20 ng/mL reserpine and d4-BTZ-043, were added. The samples were vortexed for 1 min and kept in an ultrasonic bath for 3 min. Subsequently, the samples were centrifuged (10 min, 15,000 × g). The supernatant was transferred into a glass vial and 5 µL was injected into the LC. The LC settings and MS parameters were the same as described for the tissue mimetics (Supplementary Methods). As internal standard d4-BTZ-043 was utilized, with the m/z-transitions 436.0 → 86.0 (cone voltage of 30 V, collision energy of 30 eV, dwell time of 0.2 s) as quantifier. With the expected very low concentrations of the analyte in the LCM material, the deuterated standard was applied to better mimic matrix effects and recovery for this analysis. For calibration curve preparation lung homogenate from drug-naïve mice was added to 80% ACN/20% FA (1%), containing reserpine (as QC) and d4-BTZ-043 (20 ng/mL per sample) to the final solution containing about 0.44 µg tissue/mL, which equals the average weight of the obtained material of the LCM. After centrifugation (5 min, 15,000 × g) the supernatant was spiked with BTZ-043 to yield a calibration curve ranging from 0.00015–0.025 µg/mL.

Mtb = test system: Mtb; set-up: method as in PMID 28821804; details: NOS2-deficient mice, 50 mg/kg/day, cited from earlier work
H37Rv = details: in vitro, against H37Rv; cited from earlier work
[2] = BALB/c, 8 weeks, 3 highest doses (250-1000 mg/kg/day)
[3] = LCM flakes from adjacent area (non necrotic), 4h post administration, listed as BTZ

C[C@H]1COC2(CCN(c3nc(=O)c4cc(C(F)(F)F)cc([N+](=O)[O-])c4s3)CC2)O1 [BTZ-043]
efficacy compared to INH therapy (Mtb H37Rv; [2]): significantly increased efficacy | pulmonary bacterial burden lower than the vehicle control group (Mtb H37Rv; [2]): more than 2.4 log10 CFU | lowest dose with maximum effect (LME) (Mtb H37Rv; mouse model of TB (BALB/c), microcrystalline BTZ-043): 250 mg/kg/day | concentration at 0.5 h (in vivo; both, lung (cryosections)): 1120 ± 190 ng/g | concentration at 2 h (in vivo; both, lung (cryosections)): 910 ± 150 ng/g | concentration at 8 h (in vivo; both, lung (cryosections)): 270 ng/mL | concentration at 4 h (in vivo; female, lung cryosection): 780 ng/g | concentration at 8 h (in vivo; female, lung cryosection): 260 ng/g | concentration at 2 h (in vivo; female, lung cryosections): 1090 ng/g | concentration at 2 h (in vivo; male, lung cryosection): 950 ng/g | concentration at 0.5 h (in vivo; male, lung cryosections): 1280 ng/g | concentration at 4 h (in vivo; male, lung cryosections): 1380 ng/g | concentration at 8 h (in vivo; male, lung cryosections): 730 ng/g | Papp B→A at 120 min (in vitro; Caco-2): 6.9 to 12.9 ×10⁻⁶ cm/s | Papp at 120 min, 1 µg/mL (in vitro; Caco-2, Mean Papp): 9.44 ×10⁻⁶ cm/s | Papp at 120 min, 4 µg/mL (in vitro; Caco-2, Mean Papp): 12.9 ×10⁻⁶ cm/s | concentration at 4 h ([1]; TB granulomas laser-dissected from lung cryosections, 250 mg/kg, 4 h after administration, assumed tissue density 1 g/mL, read-out: mean BTZ-043 concentration within TB granulomas): 570 ng/mL | concentration at 4 h ([1]; lung, laser-dissected necrotic granuloma, 250 mg/kg, LCM flakes from granulome area (granuloma), IL-13tg mouse lung cryosections, 4h post administration, read-out: ng/mg lung tissue, technical replicate 2): 495 ng/g | concentration at 4 h ([1]; lung, laser-dissected necrotic granuloma, 250 mg/kg, LCM flakes from granulome area (granuloma), mean of 2 technical replicates, 4h post administration, read-out: ng/mg lung tissue, Mean): 430 ng/g | concentration at 4 h ([1]; lung, whole cryosection, 250 mg/kg, whole cryosection from OT207 (QC, internal control), 4h post administration, read-out: ng/mg lung tissue, technical replicate 1): 779 ng/g | concentration at 4 h ([1]; lung, whole cryosection, 250 mg/kg, whole cryosection from OT207 (QC, internal control), 4h post administration, read-out: ng/mg lung tissue, technical replicate 2): 846 ng/g | concentration at 4 h ([1]; lung, whole cryosection, 250 mg/kg, whole cryosection from OT207 (QC, internal control), mean of 2 technical replicates, 4h post administration, read-out: ng/mg lung tissue, Mean): 810 ng/g | concentration at 4 h ([1]; necrotic granulomas laser-dissected from lung cryosections, 250 mg/kg/day, IL-13tg mouse, 250 mg/kg/day 10 days, 4 h after application, read-out: mean BTZ-043 concentration in necrotic granulomas): 570 ng/g | concentration at 4 h ([1]; non-necrotic regions laser-dissected from lung cryosections, 250 mg/kg/day, IL-13tg mouse, 250 mg/kg/day 10 days, 4 h after application, read-out: mean BTZ-043 concentration in non-necrotic regions): 340 ng/g | concentration at 4 h ([1]; 250 mg/kg, LCM flakes from adjacent area (non necrotic), 4h post administration, read-out: ng/mg lung tissue, technical replicate 1): 388 ng/g | concentration at 4 h ([1]; 250 mg/kg, LCM flakes from adjacent area (non necrotic), 4h post administration, read-out: ng/mg lung tissue, technical replicate 2): 371 ng/g | concentration at 4 h ([1]; 250 mg/kg, LCM flakes from adjacent area (non necrotic), mean of 2 technical replicates, 4h post administration, read-out: ng/mg lung tissue, Mean): 380 ng/g | ng/mg lung tissue, technical replicate 1 [1, 3]: 0.303 ng/mg lung tissue and 0.478 ng/mg lung tissue | ng/mg lung tissue, technical replicate 2 [1, 3]: 0.299 ng/mg lung tissue and 0.205 ng/mg lung tissue | ng/mg lung tissue, Mean ([1]; LCM flakes from adjacent area (non necrotic), mean of 2 technical replicates, 4h post administration, listed as BTZ): 0.30 ng/mg lung tissue and 0.34 ng/mg lung tissue | ng/mg lung tissue, Mean ([1]; LCM flakes from granulome area (granuloma), mean of 2 technical replicates, 4h post administration, listed as BTZ): 0.66 ng/mg lung tissue and 0.65 ng/mg lung tissue | bactericidal activity (Mtb; 4 weeks of treatment): profound bactericidal activity | effect on bacterial burden (Mtb; two weeks): hardly reduced the bacterial burden | MIC (H37Rv): 1 ng/mL (≈ 2.32 nM)

Source: publication PMC11742723, “The clinical-stage drug BTZ-043 accumulates in murine tuberculosis lesions and efficiently acts against Mycobacterium tuberculosis” (Nature Communications, 2025)
